The source of these data is the METLIN SMRT retention time set (Domingo-Almenara et al. 2019).

This data set can be described thus: gradient 5% acetonitrile 3 min, to 50% in 2 min, to 85% in 15 min, held 3 min, 100 µL/min. The note with it: column: Zorbax Extend-C18 2.1 x 50 mm; eluents: water / acetonitrile, 0.1% formic acid. The method in brief: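 Retention time was recorded from adduct peaks, which were picked computationally and each inspected manually. Pure standards ran in mixtures of ~100 molecules on HPLC coupled to a quadrupole time-of-flight mass spectrometer, in positive and negative ionization mode, through a Zorbax Extend-C18 column (2.1 × 50 mm, 1.8 μm) at 100 μL/min. Eluents were water and acetonitrile, each with 0.1% formic acid.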
Turning to `O=C1NC(C(=O)NCc2ccco2)Cn2cccc21` (centres undefined), the RP-LC retention time was determined as 605 s.

`O=C(COc1ccc(F)cc1)Nc1ccc2c(c1)N(C(=O)c1ccco1)CCC2` showed an RP-LC retention time of 712 s.

Regarding `CCc1nn2c(CNC(=O)c3ccc(F)c(F)c3)c(-c3ccccc3)nc2s1`, the RP-LC retention time was 661 s.

For the compound `CCOC(=O)c1noc2nc(C)nc(N3CCN(c4ccccc4)CC3)c12`, the RP-LC retention time stood at 643 s.

Compound `COc1cc(-c2nc3sc4c(c3c(=O)o2)CCC4)cc(OC)c1OC` gave an RP-LC retention time of 1090 s.

The compound `Cc1ccccc1CNC(=O)C1c2ccccc2CC(=O)N1C` (centres undefined) came in with an RP-LC retention time of 755 s.

For `CCc1nnc(-c2ccc3ccn(CC(=O)N4CCN(c5cccc(OC)c5)CC4)c3c2)o1`, the RP-LC retention time was 864 s.

With `CCCN1C(=O)c2cc(S(=O)(=O)NCc3cccs3)ccc2Oc2cccnc21`, the RP-LC retention time was 988 s.

In turn, `COc1ccc(CCNC(=O)C2CCCN(S(=O)(=O)c3ccc(OC)c(C)c3)C2)cc1` (centres undefined) returned an RP-LC retention time of 891 s.

`Cn1cnc(S(=O)(=O)N2CCCN(S(=O)(=O)c3cccc4nsnc34)CCNC(=O)CC2c2ccccc2)c1` (centres undefined) returned an RP-LC retention time of 702 s.

With `CC(=O)n1nc(-c2ccc(C)c(C)c2)nc1N`, the RP-LC retention time came out at 813 s.

The compound `O=C(NCCn1ncccc1=O)C1CCN(c2ccc(-c3ccc(F)cc3)nn2)CC1` returned an RP-LC retention time of 560 s.

In turn, `COCCn1nnnc1C1CC2(CCOCC2)C(=O)N1Cc1ccc(Cl)cc1` (centres undefined) showed an RP-LC retention time of 904 s.

Compound `O=C(NCCCN1CCCCCC1)c1csc(-c2ccnc(N3CCOCC3)c2)n1` showed an RP-LC retention time of 576 s.

As to `Cc1sc2ncnc(N3CCCC(C)C3)c2c1C(=O)Nc1cc(F)ccc1F` (centres undefined), the RP-LC retention time came out at 1220 s.

Consider `CCN1C(=O)COc2ccc(-c3csc(NC(=O)c4cccc(C)c4)n3)cc21`, for which the RP-LC retention time came to 1050 s.

With `COc1ccc(Nc2c(-c3ccc4c(c3)OCO4)nc3cnccn23)cc1OC`, the RP-LC retention time turned out to be 709 s.

As for `CCc1nc2cc(N3CCCC(C(=O)NCCN(C)C)C3)cnc2nc1CC` (centres undefined), the RP-LC retention time came to 604 s.

`Cc1cc(C)cc(NS(=O)(=O)c2cc3n(c2)CCN(C)C3=O)c1` showed an RP-LC retention time of 727 s.

For `COc1cccc(OC)c1OCC(O)CN1CCN(c2ccccc2)CC1` (centres undefined), the RP-LC retention time was 668 s.

The compound `Cc1cccc(NC(=O)Nc2c(-c3ccc(F)cc3)nc3ccccn23)c1` returned an RP-LC retention time of 695 s.

Turning to `Cc1ccc(NC(=O)C(=O)NCC2CCN(S(C)(=O)=O)CC2)cc1N1CCCC1=O`, the RP-LC retention time came to 627 s.

The compound `COc1ccc(Cl)c2c(=O)c3c([nH]c12)CCN(CC(=O)Nc1ccccc1Cl)C3` gave an RP-LC retention time of 638 s.

`COc1ccc(NC(=O)N2CCC3(C2)C(=O)Nc2ccc(OC)cc23)c(OC)c1` (centres undefined) returned an RP-LC retention time of 715 s.

For the compound `Cc1ccc(-c2noc(-c3cccc(S(=O)(=O)NCc4ccc(C)o4)c3)n2)cc1`, the RP-LC retention time stood at 1170 s.

For `COc1ccc(C)cc1NC(=O)c1cc(C)n2nc(C)cc2n1`, the RP-LC retention time was 1040 s.

The compound `CCCN1C(=O)C2CCC(=O)N2c2ccc(C(=O)Nc3ccc4c(c3)OCCO4)cc21` (centres undefined) registered an RP-LC retention time of 770 s.

As to `COc1ccc(-n2ccn3cc(-c4cccc(Cl)c4)nc3c2=O)cc1`, the RP-LC retention time was found to be 873 s.

Turning to `Cc1cc2oc3c(c(=O)c2cc1C)C(c1ccccc1F)N(c1nccs1)C3=O` (centres undefined), the RP-LC retention time was 1050 s.

`Cc1cccc(N2CCN(S(=O)(=O)c3cc(-c4nnc(C5CC5)o4)co3)CC2)c1` yielded an RP-LC retention time of 1020 s.

`CCOc1ccc(S(=O)(=O)NCC2CCN(C(=O)c3cccn(C)c3=O)CC2)cc1C` showed an RP-LC retention time of 657 s.

`Cn1cc(C2=CCN(S(=O)(=O)c3ccc(F)c(Cl)c3)CC2)c2cccnc21` returned an RP-LC retention time of 1050 s.

Compound `O=C(CN1CCN(Cc2ccc(F)cc2)C1=O)NCc1ccccc1C(F)(F)F` registered an RP-LC retention time of 866 s.

`CCn1nccc1C(=O)N1CC(N(C2CCOCC2)S(C)(=O)=O)C1` registered an RP-LC retention time of 624 s.

In turn, `Cc1cc2nn(CC(=O)Nc3ccccc3C)c(=O)n2c(-c2ccc(F)cc2)n1` returned an RP-LC retention time of 796 s.

`CSc1cccc(NC(=O)N2CCc3c(c(C(=O)N4CCCC4)nn3C)C2)c1`: the RP-LC retention time was found to be 971 s.

On to `Cc1nc2nc(-c3ccccc3)nn2c(C)c1CC(=O)N1CCCCC1`, for which the RP-LC retention time amounted to 735 s.

On to `Fc1ccc(CN2CCCCC2c2nncn2CC2CC2)cc1F` (centres undefined), for which the RP-LC retention time worked out at 619 s.

For `CN1C(=O)C2(CCN(C(=O)C3CCCCC3)CC2)c2ccccc21`, the RP-LC retention time came out at 899 s.

`O=C(NCCCc1ccccc1)C(=O)NCc1n[nH]c(=O)c2ccccc12` showed an RP-LC retention time of 746 s.

Compound `CCCNC(=O)N(C1CCOCC1)C1CCN(C(=O)Nc2cccc(C)c2C)CC1` yielded an RP-LC retention time of 732 s.

For `O=c1ccn(-c2ccc(Cl)cc2)nc1-c1nc(-c2ccccc2Br)no1`, the RP-LC retention time came out at 1000 s.

In the case of `COc1cccc(/C=C/c2nc(-c3ccc4oc(C)nc4c3)no2)c1`, the RP-LC retention time was 1110 s.

`Cc1ccc(CNC(=O)C2c3ccccc3CC(=O)N2C)cc1` (centres undefined) yielded an RP-LC retention time of 748 s.

As for `COc1cc2c(cc1Cc1cccc(Cl)c1F)c(=O)c(C(=O)O)cn2[C@H](CO)C(C)C`, the RP-LC retention time was 1090 s.

Compound `COc1ccccc1-c1nc2nccc(-c3ccco3)n2n1` returned an RP-LC retention time of 836 s.

In turn, `CC(Oc1ccc(F)cc1)C(=O)Nc1ccc(-c2nc(-c3ccc(F)cc3)no2)cc1` (centres undefined) came in with an RP-LC retention time of 1290 s.

The compound `Cc1cc(-c2cc(S(=O)(=O)NC3CCCCCC3)c(C)s2)n[nH]1` displayed an RP-LC retention time of 917 s.

Turning to `Cc1ccccc1NS(=O)(=O)c1cc2c(s1)CCN(C(=O)C1CCC1)C2`, the RP-LC retention time amounted to 832 s.

`Cc1noc2nc(CCC(=O)Nc3ccc(Cl)cc3F)nc(N3CCOCC3)c12` registered an RP-LC retention time of 818 s.

Compound `CN(C)c1ccc(-c2noc(CCC(=O)Nc3ccc4c(c3)OCCO4)n2)cc1` gave an RP-LC retention time of 875 s.

In turn, `Cc1cc(-c2nnc(-c3ccccc3)o2)c(C)n1CC(=O)NCc1ccccc1Cl` had an RP-LC retention time of 966 s.

On to `O=S(=O)(c1cccc(Cl)c1)N1CCC(c2noc(-c3ccccc3)n2)CC1`, for which the RP-LC retention time stood at 1160 s.

As for `CS(=O)(=O)N1CCN(CCNC(=O)NC(c2ccccc2)c2ccccc2)CC1`, the RP-LC retention time worked out at 580 s.

In turn, `Cc1c(C)n(-c2ccc(Cl)cc2)c2ncn(CC(=O)NC3CCCCC3)c(=O)c12` displayed an RP-LC retention time of 644 s.

Take `Cc1cc(NC(=O)C2CCN(C(=O)CSc3nnnn3C)CC2)no1`: the RP-LC retention time was 607 s.

Regarding `CC1(C)CC(=O)N(CC(=O)Nc2c(F)c(F)c(F)c(F)c2F)c2ccccc2S1(=O)=O`, the RP-LC retention time is 860 s.

Compound `CC(=O)N1CCc2[nH]c3ccc(C(=O)NC4CCN(Cc5ccccc5)CC4)cc3c2C1` showed an RP-LC retention time of 585 s.

In turn, `CC(C)NC(=O)c1ccc(OCC2CCCN(C(=O)c3cccc(Cl)c3)C2)cc1` (centres undefined) had an RP-LC retention time of 899 s.
